Laboratory results published in patent US20210290598A1, “MEDICAMENT USEFUL FOR CARDIOVASCULAR DISEASE” (NATIONAL UNIVERSITY CORPORATION OKAYAMA UNIVERSITY, priority 2018, published 2021).

Key:
Format in all cases: in vivo, rat
[1] = tested on: Dahl salt-sensitive rats; assay: Blood pressure in Dahl salt-sensitive rats on high-salt high-fat diet; conditions: for mean blood pressure: 12 weeks after start, mean±standard deviation, pemafibrate 0.5 mg/kg/day, pitavastatin 0.3 mg/kg/day, salt-containing HFD, control 193.6±6.6; for change in blood pressure compared with control group: 12 weeks, analysis of variance/Bonferroni
Method: (§1) Drug efficacy was evaluated on Dahl salt-sensitive rats (Dahl-Iwai S, 7 weeks old, Japan SLC, Inc.) fed on a 8% salt-containing HFD (High Fat Diet: 29.4% fat content, CLEA Japan, Inc.) (4 groups in total: (1) control group, (2) pemafibrate (0.5 mg/kg/day) single-agent administration group, (3) pitavastatin (0.3 mg/kg/day) single-agent administration group, and (4) pemafibrate (0.5 mg/kg/day)+pitavastatin (0.3 mg/kg/day) combined administration group, with 10 animals for each group). Twelve weeks after the start of administration, the animals were euthanized after measuring their blood pressure, and the weight of the isolated hearts and the endothelial function of the isolated thoracic aortas were measured with a Magnus apparatus. The measurement with the Magnus apparatus was performed according to the standard method. That is, a ring preparation of the isolated thoracic aorta was prepared, suspended in a Magnus tube in Krebs-Henseleit solution, loaded with a tension of 1 g, and constricted with 0.3 μM phenylephrine. Then, acetylcholine (10^−9 to 10^−5 M) was added cumulatively, and the relaxation response was measured. Finally, […] was obtained with 100 μM papaverine, and the relaxation rate was evaluated. When measuring with the Magnus apparatus, the blood vessels of normal rats were also evaluated in addition to the four groups, and were used as a control group. In addition, the expression level of phosphorylated endothelial nitric oxide synthase (phospho-eNOS) was evaluated by Western blotting according to the standard method, using the isolated aortas.

[2] = tested on: phosphorylated endothelial nitric oxide synthase (phospho-eNOS); assay: Expression level of phospho-eNOS in isolated aortas by Western blotting; conditions: 12 weeks dosing
Method: as §1, with “That is, a ring preparation of the isolated thoracic aorta was prepared, suspended in a Magnus tube in Krebs-Henseleit solution, loaded with a tension of 1 g, and constricted with 0.3 μM phenylephrine.” left out

[3] = tested on: Dahl salt-sensitive rats; assay: Weight of isolated hearts of Dahl salt-sensitive rats on high-salt high-fat diet; conditions: for heart weight: 12 weeks after start, mean±standard deviation, pemafibrate 0.5 mg/kg/day, pitavastatin 0.3 mg/kg/day, salt-containing HFD, control 1.74±0.1; for change in heart weight compared with control group: 12 weeks, analysis of variance/Bonferroni
Method: as §1

[4] = tested on: isolated thoracic aorta of Dahl salt-sensitive rats; assay: Endothelial function of isolated thoracic aorta, Magnus apparatus, acetylcholine relaxation response; conditions: 12 weeks dosing; aorta ring constricted with 0.3 μM phenylephrine, cumulative acetylcholine; mixed effect model, Bonferroni
Method: as §1, with “That is, a ring preparation of the isolated thoracic aorta was prepared, suspended in a Magnus tube in Krebs-Henseleit solution, loaded with a tension of 1 g, and constricted with 0.3 μM phenylephrine.” left out

SMILES	mean blood pressure [1] [mmHg]	change in blood pressure compared with control group [1]	expression level of phospho-eNOS compared to control group [2]	heart weight [3] [g]	change in heart weight compared with control group [3]	vasodilatory responsiveness as a whole compared with control group [4]
O=C(O)C[C@H](O)C[C@H](O)/C=C/c1c(C2CC2)nc2ccccc2c1-c1ccc(F)cc1 [pitavastatin]	196.9±8.4	no change was observed	tendency to increase	1.76 ± 0.2	no change compared to the control	showed a trend toward improvement in vasodilatory responsiveness
CC[C@@H](Oc1cccc(CN(CCCOc2ccc(OC)cc2)c2nc3ccccc3o2)c1)C(=O)O [pemafibrate, (2R)-2-[3-({1,3-benzoxazol-2-yl[3-(4-methoxyphenoxy)propyl]amino}methyl)phenoxy]butanoic acid]	192.6±8.3	no change was observed	tendency to increase	1.48 ± 0.1	significantly lower than that of the control	showed a trend toward improvement in vasodilatory responsiveness
